For three cell lines, relative viability results are on record in the supplement of paper PMC10307832.

Holding throughout (test): relative viability (nuclei count vs DMSO), 5 days (fraction); higher = more cells survive
Compound in the assay “AZD5582 + Dasatinib”: C[C@@H](C(=O)N[C@@H](C1CCCCC1)C(=O)N2CCC[C@H]2C(=O)N[C@@H]3[C@@H](CC4=CC=CC=C34)OCC#CC#CCO[C@@H]5CC6=CC=CC=C6[C@@H]5NC(=O)[C@@H]7CCCN7C(=O)[C@H](C8CCCCC8)NC(=O)[C@H](C)NC)NC [AZD5582] + Cc1nc(Nc2ncc(C(=O)Nc3c(C)cccc3Cl)s2)cc(N2CCN(CCO)CC2)n1 [Dasatinib] (partner 0.075 µM)
A digest of the protocol: (§1)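 Lung cancer cell lines were seeded in 1536-well plates and dosed by pin tool the next day, with either a single drug or a fixed anchor-drug dose combined with five library-drug doses (not always all listed) spaced in √10 steps. Five days later, one step fixed the cells and stained their nuclei (final 0.05% Triton X-100, 1% formaldehyde, 1 ug/ml Hoechst), and nuclei were counted on 4× images. Relative viability is the nuclei count in treated wells divided by the count in vehicle wells, and each value is the median of duplicate plates.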

Compound in the assay “AZD5582 + Linsitinib”: C[C@@H](C(=O)N[C@@H](C1CCCCC1)C(=O)N2CCC[C@H]2C(=O)N[C@@H]3[C@@H](CC4=CC=CC=C34)OCC#CC#CCO[C@@H]5CC6=CC=CC=C6[C@@H]5NC(=O)[C@@H]7CCCN7C(=O)[C@H](C8CCCCC8)NC(=O)[C@H](C)NC)NC [AZD5582] + C[C@]1(O)C[C@@H](c2nc(-c3ccc4ccc(-c5ccccc5)nc4c3)c3c(N)nccn32)C1 [Linsitinib] (partner 1 µM)
Put shortly: as §1

Compound in the assay “AZD5582 + Navitoclax”: C[C@@H](C(=O)N[C@@H](C1CCCCC1)C(=O)N2CCC[C@H]2C(=O)N[C@@H]3[C@@H](CC4=CC=CC=C34)OCC#CC#CCO[C@@H]5CC6=CC=CC=C6[C@@H]5NC(=O)[C@@H]7CCCN7C(=O)[C@H](C8CCCCC8)NC(=O)[C@H](C)NC)NC [AZD5582] + CC1(C)CCC(c2ccc(Cl)cc2)=C(CN2CCN(c3ccc(C(=O)NS(=O)(=O)c4ccc(N[C@H](CCN5CCOCC5)CSc5ccccc5)c(S(=O)(=O)C(F)(F)F)c4)cc3)CC2)C1 [Navitoclax] (partner 0.5 µM)
Put shortly:
as §1

Compound in the assay “AZD5582 + Palbociclib”: C[C@@H](C(=O)N[C@@H](C1CCCCC1)C(=O)N2CCC[C@H]2C(=O)N[C@@H]3[C@@H](CC4=CC=CC=C34)OCC#CC#CCO[C@@H]5CC6=CC=CC=C6[C@@H]5NC(=O)[C@@H]7CCCN7C(=O)[C@H](C8CCCCC8)NC(=O)[C@H](C)NC)NC [AZD5582] + CC(=O)c1c(C)c2cnc(Nc3ccc(N4CCNCC4)cn3)nc2n(C2CCCC2)c1=O [Palbociclib] (partner 0.5 µM)
A digest of the protocol: as §1

Compound in the assay “AZD5582 + Trametinib”: C[C@@H](C(=O)N[C@@H](C1CCCCC1)C(=O)N2CCC[C@H]2C(=O)N[C@@H]3[C@@H](CC4=CC=CC=C34)OCC#CC#CCO[C@@H]5CC6=CC=CC=C6[C@@H]5NC(=O)[C@@H]7CCCN7C(=O)[C@H](C8CCCCC8)NC(=O)[C@H](C)NC)NC [AZD5582] + CC(=O)Nc1cccc(-n2c(=O)n(C3CC3)c(=O)c3c(Nc4ccc(I)cc4F)n(C)c(=O)c(C)c32)c1 [Trametinib] (partner 0.02 µM)
A digest of the protocol: as §1

Take SW 1573: the relative viability came to 0.56 in the assay with AZD5582 + Dasatinib (first compound 0.001581 µM); 0.732 with AZD5582 + Dasatinib (first compound 0.005 µM); 0.573 in the assay with AZD5582 + Dasatinib (first compound 0.01581 µM); 0.566 with AZD5582 + Dasatinib (first compound 0.05 µM); 0.918 with AZD5582 + Linsitinib (first compound 0.001581 µM); 0.834 with AZD5582 + Linsitinib (first compound 0.005 µM). The relative viability with AZD5582 + Linsitinib (first compound 0.01581 µM) was 0.801; with AZD5582 + Linsitinib (first compound 0.05 µM), 0.916; with AZD5582 + Navitoclax (first compound 0.001581 µM) it was 0.848; with AZD5582 + Navitoclax (first compound 0.005 µM), 0.926; with AZD5582 + Navitoclax (first compound 0.01581 µM) it was 0.82; in the assay with AZD5582 + Navitoclax (first compound 0.05 µM) it was 1.32. Besides, the relative viability with AZD5582 + Palbociclib (first compound 0.001581 µM) is 0.352; in the assay with AZD5582 + Palbociclib (first compound 0.005 µM), 0.451; with AZD5582 + Palbociclib (first compound 0.01581 µM) it was 0.402; with AZD5582 + Palbociclib (first compound 0.05 µM), 0.407; in the assay with AZD5582 + Trametinib (first compound 0.001581 µM), 0.473; in the assay with AZD5582 + Trametinib (first compound 0.005 µM), 0.586. The relative viability worked out at 0.537 with AZD5582 + Trametinib (first compound 0.01581 µM) and 0.662 in the assay with AZD5582 + Trametinib (first compound 0.05 µM).

Regarding NCI-H2347, the relative viability with AZD5582 + Dasatinib (first compound 0.001581 µM) was determined as 0.304; with AZD5582 + Dasatinib (first compound 0.005 µM), 0.663; with AZD5582 + Dasatinib (first compound 0.01581 µM), 0.341; with AZD5582 + Dasatinib (first compound 0.05 µM), 0.303; in the assay with AZD5582 + Linsitinib (first compound 0.001581 µM) it was 0.914; with AZD5582 + Linsitinib (first compound 0.005 µM) it was 1.08. Further, the relative viability with AZD5582 + Linsitinib (first compound 0.01581 µM) was found to be 0.972; with AZD5582 + Linsitinib (first compound 0.05 µM), 0.952; with AZD5582 + Navitoclax (first compound 0.001581 µM), 0.747; with AZD5582 + Navitoclax (first compound 0.005 µM), 0.941; with AZD5582 + Navitoclax (first compound 0.01581 µM), 0.791; with AZD5582 + Navitoclax (first compound 0.05 µM), 0.748. Besides, the relative viability was 0.43 with AZD5582 + Palbociclib (first compound 0.001581 µM); 0.392 with AZD5582 + Palbociclib (first compound 0.005 µM); 0.447 with AZD5582 + Palbociclib (first compound 0.01581 µM); 0.416 with AZD5582 + Palbociclib (first compound 0.05 µM); 0.327 with AZD5582 + Trametinib (first compound 0.001581 µM); 0.266 with AZD5582 + Trametinib (first compound 0.005 µM). Besides, the relative viability in the assay with AZD5582 + Trametinib (first compound 0.01581 µM) is 0.264; with AZD5582 + Trametinib (first compound 0.05 µM), 0.311.

NCI-H2126: the relative viability with AZD5582 + Dasatinib (first compound 0.001581 µM) was 0.61; with AZD5582 + Dasatinib (first compound 0.005 µM), 0.678; in the assay with AZD5582 + Dasatinib (first compound 0.01581 µM), 0.555; with AZD5582 + Dasatinib (first compound 0.05 µM), 0.684; in the assay with AZD5582 + Linsitinib (first compound 0.001581 µM) it was 0.666; in the assay with AZD5582 + Linsitinib (first compound 0.005 µM) it was 0.709. Further, the relative viability turned out to be 0.715 in the assay with AZD5582 + Linsitinib (first compound 0.01581 µM); 0.745 in the assay with AZD5582 + Linsitinib (first compound 0.05 µM); 0.829 with AZD5582 + Navitoclax (first compound 0.001581 µM); 0.835 with AZD5582 + Navitoclax (first compound 0.005 µM); 0.834 with AZD5582 + Navitoclax (first compound 0.01581 µM); 0.706 with AZD5582 + Navitoclax (first compound 0.05 µM). For the same cell line, the relative viability with AZD5582 + Palbociclib (first compound 0.001581 µM) is 0.331; with AZD5582 + Palbociclib (first compound 0.005 µM), 0.334; with AZD5582 + Palbociclib (first compound 0.01581 µM), 0.36; with AZD5582 + Palbociclib (first compound 0.05 µM) it was 0.379; with AZD5582 + Trametinib (first compound 0.001581 µM), 0.581; with AZD5582 + Trametinib (first compound 0.005 µM) it was 0.594. Also, the relative viability stood at 0.594 with AZD5582 + Trametinib (first compound 0.01581 µM) and 0.614 in the assay with AZD5582 + Trametinib (first compound 0.05 µM).
